We go through 3 molecules from US11384078B2, “5,6-fused-bicyclic compounds and compositions for the treatment of parasitic diseases” (NOVARTIS AG, priority 2017, dated 2022).

Holding throughout (assay type): cell-based
In assay [1] the test system is L. donovani HU3 strain in mouse peritoneal macrophages. As to the kind of experiment: Assay for inhibition of parasitemia of Leishmania donovani in mouse macrophages (SYBR Green nuclei count, high-content imaging). The settings on record: Leishmania donovani, Peritoneal macrophage, L. donovani in mouse peritoneal macrophages; read-out: L. donovani in Mouse Macrophages EC50. Summed up: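 Peritoneal macrophages from uninfected BALB/c mice were infected for 24 h with spleen-derived L. donovani HU3 (4×10^5 parasites per 2×10^4 macrophages), then cultured with compound for 5 days at 37° C, 5% CO2. After fixation and permeabilization, parasite nuclei were stained with SYBR Green and counted by high-content imaging.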

In assay [2] the test system is Trypanosoma cruzi amastigotes cultured in 3T3 fibroblast cells. As to the kind of experiment: Assay for growth inhibition of kinetoplastid parasite Trypanosoma cruzi (beta-galactosidase Tulahuen strain, CPRG readout). The conditions noted are these: Trypanosoma cruzi, Fibroblast, T. cruzi amastigotes in 3T3 fibroblast cells; read-out: Buckner infectious T. cruzi EC50. Summed up:
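3T3 fibroblasts (1,000 cells/well) plated overnight, treated with compound in DMSO, then infected with 10,000 Lac-Z-expressing Tulahuen trypomastigotes. After 6 days, 0.6 mM CPRG with 0.6% NP-40 added for 2 h at room temperature; absorbance gives relative intracellular amastigote numbers. Benznidazole and nifurtimox serve as positive controls.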

Assay [3] relates to Leishmania donovani axenic amastigote. As to the kind of experiment: In vitro assay for growth inhibition of Leishmania donovani axenic amastigote (Cell TiterGlo luminescence). The conditions noted are these: Leishmania donovani, L. donovani axenic amastigotes in vitro; read-out: L. donovani amastigotes EC50. Summed up: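 Axenic L. donovani amastigotes (9600/well) grown at 37 °C, 5% CO2 in supplemented RPMI 1640, pH 5.5, with compound added from DMSO. After two days, viability read by CellTiter-Glo luminescence against DMSO and control-compound wells.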
On the technique in general: ATP-based viability assays read luminescence as a measure of living cells.

Assay [4] deals with Trypanosoma brucei brucei (Lister 427) strain. As to the kind of experiment: Assay for growth inhibition against Trypanosoma brucei brucei (Cell TiterGlo ATP luminescence). The settings on record: Trypanosoma brucei, T. brucei brucei (Lister 427); read-out: T. Brucei (HAT) EC50. Summed up:
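T. b. brucei Lister 427 grown in HMI-9 with 10% FBS and 10% serum plus, seeded at 10,000 parasites/mL with 10-point threefold compound dilutions in duplicate, 37 °C for 2 days. Viability read as ATP luminescence 30 min after Cell TiterGlo; IC50 versus untreated controls.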

As a reminder, the EC50 is the midpoint of the concentration-response curve. As to `O=C(Nc1ccc(F)c(-n2cc3cc(N4CC(F)C4)cnc3n2)c1)N1CC[C@@H](F)C1` [Compound 302, (3R)-3-fluoro-N-{4-fluoro-3-[5-(3-fluoroazetidin-1-yl)-2H-pyrazolo[3,4-b]pyridin-2-yl]phenyl}pyrrolidine-1-carboxamide], the concentration for a half-maximal effect (EC50) is 15 nM in assay [1], 2 nM in assay [2], 118 nM in assay [3] and 5 nM in assay [4].
`O=C(Nc1ccnc(-n2cc3cc(N4CC5(CC5)C4)cnc3n2)c1)N1CCC1` [Compound 282, N-[2-(5-{5-azaspiro[2.3]hexan-5-yl}-2H-pyrazolo[3,4-b]pyridin-2-yl)pyridin-4-yl}azetidine-1-carboxamide]: the EC50 stood at 70 nM in assay [1], 40 nM in assay [2], 34 nM in assay [3] and 27 nM in assay [4].
With `O=C(Nc1ccc(F)c(-n2cc3cc(-c4ccccn4)cnc3n2)c1)C1CC12CC2` (stereo not drawn) [Compound 346, N-{4-fluoro-3-[5-(pyridin-2-yl)-2H-pyrazolo[3,4-b]pyridin-2-yl]phenyl}spiro[2.2]pentane-1-carboxamide], the concentration giving a half-maximal response (EC50) in assay [1] was 155 nM; in assay [2] it was 34 nM; in assay [3], 239 nM; in assay [4], 41 nM.
